Source: the supplement of paper PMC10307832

Key:
Test in all cases: relative viability (nuclei count vs DMSO), 5 days (fraction); higher = more cells survive
[1] = tested on: NCI-H322M
In short: (§1)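 Relative viability was taken as the ratio of nuclei in treated wells to nuclei in vehicle wells. Lung cancer cell lines in 1536-well plates received compounds by pin tool one day after seeding, either one drug alone or a fixed anchor-drug dose plus five library-drug doses (not always all listed) in √10 steps. Nuclei were counted on 4× images after 5 days of treatment, and values are medians of duplicate plates.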

[2] = tested on: SK-MES-1
In short: as §1

[3] = tested on: NCI-H1915
In short: as §1

[4] = tested on: NCI-H2347
In short: as §1

[5] = tested on: NCI-H520
In short: as §1

[6] = tested on: NCI-H441
In short: as §1

[7] = tested on: NCI-H1563
In short: as §1

[8] = tested on: NCI-H3122
In short: as §1

[9] = tested on: LCLC-103H
In short: as §1

[10] = tested on: NCI-H650
In short: as §1

[11] = tested on: NCI-H1792
In short: as §1

[12] = tested on: NCI-H661
In short: as §1

[13] = tested on: NCI-H1355
In short: as §1

[14] = tested on: NCI-H460
In short: as §1

[15] = tested on: PC-14
In short: as §1

[16] = tested on: RERF-LC-KJ
In short: as §1

[17] = tested on: NCI-H596
In short: as §1

[18] = tested on: NCI-H1755
In short: as §1

[19] = tested on: LXF-289
In short: as §1

[20] = tested on: NCI-H2170
In short: as §1

[21] = tested on: NCI-H1651
In short: as §1

[22] = tested on: NCI-H727
In short: as §1

Structure (SMILES): COc1cc(N2CCC(C(N)=O)CC2)ccc1Nc1nc(N)c(Cl)c(Nc2ccccc2S(=O)(=O)C(C)C)n1 [HG-5-88-01] + CS(=O)(=O)N1CCN(Cc2cc3nc(-c4cccc5[nH]ncc45)nc(N4CCOCC4)c3s2)CC1 [Pictilisib] (partner 1 µM)
- relative viability ([1]; first compound 0.04 µM): 0.461
- relative viability ([1]; first compound 0.1265 µM): 0.471
- relative viability ([1]; first compound 0.4 µM): 0.512
- relative viability ([1]; first compound 1.265 µM): 0.441
- relative viability ([1]; first compound 4 µM): 0.449
- relative viability ([2]; first compound 0.04 µM): 0.37
- relative viability ([2]; first compound 0.1265 µM): 0.373
- relative viability ([2]; first compound 0.4 µM): 0.354
- relative viability ([2]; first compound 1.265 µM): 0.282
- relative viability ([2]; first compound 4 µM): 0.299
- relative viability ([3]; first compound 0.04 µM): 0.92
- relative viability ([3]; first compound 0.1265 µM): 0.973
- relative viability ([3]; first compound 0.4 µM): 0.95
- relative viability ([3]; first compound 1.265 µM): 1.13
- relative viability ([3]; first compound 4 µM): 0.806
- relative viability ([4]; first compound 0.04 µM): 0.603
- relative viability ([4]; first compound 0.1265 µM): 0.645
- relative viability ([4]; first compound 0.4 µM): 0.683
- relative viability ([4]; first compound 4 µM): 0.471
- relative viability ([5]; first compound 0.04 µM): 0.366
- relative viability ([5]; first compound 0.1265 µM): 0.273
- relative viability ([5]; first compound 0.4 µM): 0.235
- relative viability ([5]; first compound 1.265 µM): 0.299
- relative viability ([5]; first compound 4 µM): 0.36
- relative viability ([6]; first compound 0.04 µM): 0.435
- relative viability ([6]; first compound 0.1265 µM): 0.409
- relative viability ([6]; first compound 0.4 µM): 0.494
- relative viability ([6]; first compound 1.265 µM): 0.352
- relative viability ([6]; first compound 4 µM): 0.536
- relative viability ([7]; first compound 0.04 µM): 0.66
- relative viability ([7]; first compound 0.1265 µM): 0.671
- relative viability ([7]; first compound 0.4 µM): 0.638
- relative viability ([7]; first compound 1.265 µM): 0.651
- relative viability ([7]; first compound 4 µM): 0.634
- relative viability ([8]; first compound 0.04 µM): 0.252
- relative viability ([8]; first compound 0.1265 µM): 0.174
- relative viability ([8]; first compound 0.4 µM): 0.2
- relative viability ([8]; first compound 1.265 µM): 0.172
- relative viability ([8]; first compound 4 µM): 0.173
- relative viability ([9]; first compound 0.04 µM): 0.643
- relative viability ([9]; first compound 0.1265 µM): 0.555
- relative viability ([9]; first compound 0.4 µM): 0.484
- relative viability ([9]; first compound 1.265 µM): 0.608
- relative viability ([9]; first compound 4 µM): 0.426
- relative viability ([10]; first compound 0.04 µM): 0.88
- relative viability ([10]; first compound 0.1265 µM): 0.925
- relative viability ([10]; first compound 0.4 µM): 0.864
- relative viability ([10]; first compound 1.265 µM): 0.743
- relative viability ([10]; first compound 4 µM): 0.685
- relative viability ([11]; first compound 0.04 µM): 0.372
- relative viability ([11]; first compound 0.1265 µM): 0.272
- relative viability ([11]; first compound 0.4 µM): 0.313
- relative viability ([11]; first compound 1.265 µM): 0.253
- relative viability ([11]; first compound 4 µM): 0.297
- relative viability ([12]; first compound 0.04 µM): 0.43
- relative viability ([12]; first compound 0.1265 µM): 0.477
- relative viability ([12]; first compound 0.4 µM): 0.469
- relative viability ([12]; first compound 4 µM): 0.418
- relative viability ([13]; first compound 0.04 µM): 0.253
- relative viability ([13]; first compound 0.1265 µM): 0.462
- relative viability ([13]; first compound 0.4 µM): 0.412
- relative viability ([13]; first compound 1.265 µM): 0.414
- relative viability ([13]; first compound 4 µM): 0.299
- relative viability ([14]; first compound 0.04 µM): 0.379
- relative viability ([14]; first compound 0.1265 µM): 0.296
- relative viability ([14]; first compound 0.4 µM): 0.395
- relative viability ([14]; first compound 1.265 µM): 0.332
- relative viability ([14]; first compound 4 µM): 0.277
- relative viability ([15]; first compound 0.04 µM): 0.79
- relative viability ([15]; first compound 0.1265 µM): 0.862
- relative viability ([15]; first compound 0.4 µM): 0.658
- relative viability ([15]; first compound 1.265 µM): 0.168
- relative viability ([15]; first compound 4 µM): 0.108
- relative viability ([16]; first compound 0.04 µM): 0.588
- relative viability ([16]; first compound 0.1265 µM): 0.714
- relative viability ([16]; first compound 0.4 µM): 0.498
- relative viability ([16]; first compound 1.265 µM): 0.481
- relative viability ([16]; first compound 4 µM): 0.412
- relative viability ([17]; first compound 0.04 µM): 0.447
- relative viability ([17]; first compound 0.1265 µM): 0.42
- relative viability ([17]; first compound 0.4 µM): 0.382
- relative viability ([17]; first compound 1.265 µM): 0.414
- relative viability ([17]; first compound 4 µM): 0.312
- relative viability ([18]; first compound 0.1265 µM): 0.508
- relative viability ([18]; first compound 0.4 µM): 0.438
- relative viability ([18]; first compound 1.265 µM): 0.53
- relative viability ([18]; first compound 4 µM): 0.399
- relative viability ([19]; first compound 0.04 µM): 0.819
- relative viability ([19]; first compound 0.1265 µM): 0.796
- relative viability ([19]; first compound 0.4 µM): 0.821
- relative viability ([19]; first compound 1.265 µM): 0.81
- relative viability ([19]; first compound 4 µM): 0.736
- relative viability ([20]; first compound 0.04 µM): 0.269
- relative viability ([20]; first compound 0.1265 µM): 0.33
- relative viability ([20]; first compound 0.4 µM): 0.28
- relative viability ([20]; first compound 1.265 µM): 0.26
- relative viability ([20]; first compound 4 µM): 0.261
- relative viability ([21]; first compound 0.04 µM): 0.51
- relative viability ([21]; first compound 0.1265 µM): 0.609
- relative viability ([21]; first compound 0.4 µM): 0.559
- relative viability ([21]; first compound 1.265 µM): 0.646
- relative viability ([21]; first compound 4 µM): 0.646
- relative viability ([22]; first compound 0.04 µM): 0.486
- relative viability ([22]; first compound 0.1265 µM): 0.448
- relative viability ([22]; first compound 0.4 µM): 0.24
- relative viability ([22]; first compound 1.265 µM): 0.261
- relative viability ([22]; first compound 4 µM): 0.249
